Data set [1] concerns SW780 bladder cancer cell line. The data set can be described thus: CellTiter-Glo viability assay, SW780. Type of data set: cell-based. The following applies: 72 hours (FIG. 12). On the procedure:
(§1) Cellular viability was assessed using the CellTiter-Glo Luminescent Cell Viability Assay (Promega) according to manufacturer protocols. Bladder cancer cell lines were seeded into 96-well plates based on optimal growth rates determined empirically for each line. Twenty-four hours after plating, cells were dosed with graded concentrations of ganetespib for 72 hours. CellTiter-Glo was added (50% v/v) to the cells, and the plates incubated for 10 minutes prior to luminescent detection in a SpectraMax Plus 384 microplate reader (Molecular Devices). Data were normalized to percent of control and IC50 values used to determine the sensitivity of each line. For the comparative analyses with ganetespib and BGJ398, RT112 cells were treated with graded concentrations of each compound for 72 hours and cell viability measured as above. For the evaluation of apoptotic induction, caspase activity was assessed using the Caspase-Glo 3/7 assay (Promega) according to manufacturer protocols. Twenty-four hours after plating, RT112 cells were treated with graded concentrations of ganetespib for 24 hours. Caspase-Glo was added to cells (50% v/v) and the plates incubated for 1 hour prior to luminescent detection.
On the technique in general: In ATP-based viability assays light output follows the ATP content of the culture.

The test system of data set [2] is RT4 bladder cancer cell line. The data set is described as follows: CellTiter-Glo viability assay, RT4. It is filed as cell-based. The following applies: 72 hours (FIG. 8), read-out: IC50 values. The method, then: as §1
Data set [3] deals with RT112 bladder cancer cell line. The data set is described as follows: CellTiter-Glo viability assay, RT112. It is filed as cell-based. The following applies: Homo sapiens, RT-112, 72-hour combination viability assay, single inhibitor, read-out: approximate IC50 concentrations. The method, then: as §1
The subject of data set [4] is FGFR3-TAAC3 in RT112 cells. The data set is described as follows: Western blotting of FGFR3-TAAC3 and signaling proteins in RT112 cells. Type of data set: cell-based. Particulars: 100 nM, 24 hours. On the procedure: Following in vitro assays, tumor cells were disrupted in lysis buffer on ice for 10 minutes. Lysates were clarified by centrifugation and equal amounts of proteins resolved by SDS-PAGE before transfer to nitrocellulose membranes (Bio-Rad). Membranes were blocked with StartingBlock T20 blocking buffer (Thermo Scientific) and immunoblotted with the indicated antibodies. Antibody-antigen complexes were visualized using an Odyssey system (LI-COR).
In general terms: Immunoblotting shows a protein as a band on a membrane.

The subject of the next data set is RT112 xenografts. The data set is described as follows: RT112 xenograft tumor model. Type of data set: in vivo. The following applies: BGJ398 10 mg/kg p.o. daily, 3 weeks. On the procedure:
CD-1 nude mice (Charles River Laboratories, Wilmington, Mass.) at 7-12 weeks of age were maintained in a pathogen-free environment and all in vivo procedures were approved by the Synta Pharmaceuticals Corp. Institutional Animal Care and Use Committee. RT112 cells (5×10^6) were subcutaneously implanted into female mice and animals bearing established tumors (˜150 mm^3) were randomized into treatment groups of 8. Mice were i.v. dosed with ganetespib (150 mg/kg) once weekly or p.o. dosed with BGJ398 (10 mg/kg) daily, either alone or in combination, for 3 weeks. Tumor growth inhibition was monitored by tumor volume measurements twice weekly. As a measurement of in vivo efficacy, the % T/C value was determined from the change in average tumor volumes of each treated group relative to the vehicle treated animals. Statistical significance was determined using two-way ANOVA followed by Bonferroni post tests.

Experimental findings from patent publication US20160324863A1, “TARGETED CANCER TREATMENT BY HSP90 INHIBITORS GANETESPIB AND NVP-AUY922” (SYNTA PHARMACEUTICALS CORP., priority 2014, published 2016) are described below.

In the case of `C=CCNC1=C2C[C@@H](C)C[C@H](OC)[C@H](O)[C@@H](C)/C=C(\C)[C@H](OC(N)=O)[C@@H](OC)/C=C\C=C(/C)C(=O)NC(=CC1=O)C2=O` [17-AAG, 17-allylamino-17-demethoxygeldanamycin], the “cytotoxicity / sensitivity of cells (in words)” value in data set [1] was “acutely sensitive”.

With `CO[C@H]1/C=C\C=C(/C)C(=O)NC2=CC(=O)C(NCCN(C)C)=C(C[C@@H](C)C[C@H](OC)[C@H](O)[C@@H](C)/C=C(\C)[C@@H]1OC(N)=O)C2=O` [17-DMAG, 17-dimethylaminoethylamino-17-demethoxygeldanamycin], the “cytotoxicity / sensitivity of cells (in words)” value in data set [1] is reported as “acutely sensitive”.

Take `CCNC(=O)c1noc(-c2cc(C(C)C)c(O)cc2O)c1-c1ccc(CN2CCOCC2)cc1` [AUY922]: in data set [2], the IC50 was greater than 1000 nM.

Consider `CCN1CCN(c2ccc(Nc3cc(N(C)C(=O)Nc4c(Cl)c(OC)cc(OC)c4Cl)ncn3)cc2)CC1` [BGJ398, reference compound], for which the IC50 in data set [3] is roughly 5 nM. For the same compound, the “total FGFR3-TAAC3 expression” value in data set [4] is on record as “did not affect”. Further, in the data set on RT112 xenografts, the T/C value is recorded as −20%.
